Results reported in patent US9603922B2, “Modulation of NKT cell activity with antigen-loaded CD1d molecules” (VACCINEX, INC., priority 2007, dated 2017).

B1: αGalCer/sCD1d: soluble monomeric mouse β2m-CD1d, His-tagged, loaded with αGalCer (protein)
chain: IQKTPQIQVYSRHPPENGKPNILNCYVTQFHPPHIEIQMLKNGKKIPKVEMSDMSFSKDWSFYILAHTEFTPTETDTYACRVKHASMAEPKTVYWDRDMGGGGSGGSGSGGGSEAQQKNYTFRCLQMSSFANRSWSRTDSVVWLGDLQTHRWSNDSATISFTKPWSQGKLSNQQWEKLQHMFQVYRVSFTRDIQELVKMMSPKEDYPIEIQLSAGCEMYPGNASESFLHVAFQGKYVVRFWGTSWQTVPGAPSWLDLPIKVLNADQGTSATVQMLLNDTCPLFVRGLLEAGKSDLEKQEKPVAWLSSVPSSADGHRQLVCHVSGFYPKPVWVMWMRGDQEQQGTHRGDFLPNADETWYLQATLDVEAGEEAGLACRVKHSSLGGQDIILYWSSGSGGHHHHHH

Columns and labels:
[1] = test system: liver and spleen iNKT cells; assay: Intracellular cytokine staining of liver and spleen NKT cells after repeated i.v. injections; set-up: species or system mouse; conditions: after 5 to 6 i.v. injections every three days; ex vivo and in vitro rechallenge
Protocol: FIG. 2: a Sustained IFNγ production by liver and spleen iNKT cells after several injections of CD1d/anti-HER2 fusion. Liver and spleen lymphocytes were isolated 20 minutes after the sixth injection of either PBS (control, white bar), αGalCer 0.4 μg (grey bar), or αGalCer/CD1d-anti-HER2 fusion protein 40 μg (black bar) and cultured for 1 hour in presence of GOLGI PLUG™ reagent. NKT cells were then stained with anti NK1.1-PE and anti CD3-FITC antibodies, fixed and stained for intracellular IFNγ with anti IFNγ-APC. […] Liver lymphocytes were isolated after 5 injections i.v. of either PBS (Control), αGalCer, αGalCer/CD1d-anti-HER2 fusion protein (Fusion) or αGalCer/sCD1d (sCD1d) and stimulated in vitro for 6 hours in presence of GOLGI PLUG™ as indicated. […]
Isolation of liver, lung and spleen lymphocytes. […] After two washings, cells were either re-challenged or directly analyzed by fluorescence cytometry. […]
Sustained production of IFNγ after repeated i.v. injections: cytokine production was tested by IntraCellular Cytokine Staining (ICCS). […] After fixation and permeabilization with CYTOFIX/CYTOPERM™ (BD), intracellular IFNγ was detected with an APC-labeled anti-IFNγ monoclonal antibody. Cells were analyzed by flow cytometry on a FACS Calibur ([…]™ Software; BD). […]

B16-HER2 cells = assay: Precoating experiment, lung metastases of B16-HER2 cells; assay type: in vivo, mouse; conditions: cells pre-incubated with agent, injected i.v. into naïve mice
Protocol: Quantification of lung metastasis. Metastatic nodule surface area was measured on 2560×1920 pixels photographs of the whole organs, taken on an Zeiss STEMI SV11 dissection microscope (Carl Zeiss, Jena, Germany) equipped with a PROGRES-C10plus Color Camera (Jenoptik, Jena, Germany). Each image was analyzed with the ImageJ program (rsb.info.nih.gov/ij/) using a k-means clustering algorithm (plugin available on ij-plugins.sourceforge.net). Images were segmented into 9 segments cluster tolerance 1×10−4, randomization seed: 48) and the appropriate segments were selected based on the color of the metastasis reaching the surface of the organ. The area of the sum of selected color segments was expressed as percentage of the area occupied by the lungs. Both sides of the lung were analyzed. This method takes into account both the number and the size of the tumor nodules.

liver NK cells = assay: Transactivation of NK cells: liver NK1.1+ CD3- cells after single injection; assay type: in vivo, mouse; conditions: 20 hours after single i.p. injection
Source text: Cells were stained with anti NK1.1-PE and anti CD3-FITC and analysed by flow cytometry. NK cells are reported as NK1.1 positive/CD3 negative population. b c Induction of DC maturation and T cell proliferation by αGalCer/sCD1d activated NKT cells in vivo. Splenocytes were isolated after five treatments i.v. with either PBS (control), αGalCer, or αGalCer/sCD1d and cultured for 4 days with GM-CSF and then 3 more days with either PBS (control, white bars), αGalCer (grey bars), or αGalCer/sCD1d (sCD1d, black bars). Cells were then stained with anti CD11c-FITC and biotinylated anti CD40 and Streptavidin-PE to detect double positive mature DCs (c), or with anti NK1.1-PE and anti CD3-FITC to detect CD3 single positive T cells (d) by flow cytometry.
In absence of a specific antigen: Several reports have described the capacity of iNKT cells to transactivate NK, DC and T cells upon activation with free αGalCer or αGalCer-pulsed dendritic cells (Nieda, M., et al. Blood 103:383-389 (2004); Hermans, I. F., et al. J Immunol 171:5140-5147 (2003); Smyth, M. J., et al. J Exp Med 201:1973-1985 (2005)). […] Markers for DC maturation were also analyzed after 5 days in vitro culture of splenocytes isolated at the end of a systemic treatment, as described in Example 1. […]

| Molecule | IFNγ production by iNKT cells [1] | Lung metastases of precoated B16-HER2 cells (B16-HER2 cells) | NK cell frequency (NK1.1+ CD3- population) (liver NK cells) |
| --- | --- | --- | --- |
| CCCCCCCCCCCCCCCCCCCCCCCCCC(=O)N[C@@H](CO[C@H]1O[C@H](CO)[C@H](O)[C@H](O)[C@H]1O)[C@H](O)[C@H](O)CCCCCCCCCCCCCC [αGalCer, α-galactosylceramide, reference compound] | only active in naïve (PBS control) mice and has no more effect in αGalCer-treated mice | completely inhibited tumor development | increased |
| B1 | stimulate iNKT to produce IFNγ following repeated in vivo stimulation with the same material | – | increased |
